These are literature values, as cited in patent US5177064A, “Targeted drug delivery via phosphonate derivatives” (University of Florida, priority 1990, dated 1993).

Usually log P stands for a log measure of how a compound divides between an organic and an aqueous phase. Broadly, the pIC50 is −log10 of the IC50, conventionally taken in molar units. As usually defined, the aqueous solubility is the concentration that dissolves in the medium under given conditions.

pIC50: −log10 of the molar value. Converted amounts (≈) assume the structure as drawn.

The conditions of data set [1]: human, in vivo.
Data set [2] concerns encephalitis.
Data set [3] relates to encephalitis. To be noted: treatment of encephalitis in vitro and in vivo.
Another data set concerns HCMV. To be noted: in vitro; read-out: IC50 against HCMV.
The conditions of data set [4]: at 37° C.
For data set [5] the following is noted: humans.
The mark [6] stands for this setting: intravenous, biphasic elimination.

With `NC(=O)c1ncn([C@@H]2O[C@H](CO)[C@@H](O)[C@H]2O)n1` [ribavirin, 1-β-D-ribofuranosyl-1,2,4-triazole-3-carboxamide], the “log P” value was 2.06.

As for `Nc1ncnc2c1ncn2[C@@H]1O[C@H](CO)[C@@H](O)[C@@H]1O` [Ara-A, 9-β-D-arabinofuranosyladenine], the “log P (octanol/water)” value (octanol/water) is given as “negative”.

In the case of `Cc1cn([C@H]2C[C@H](N=[N+]=[N-])[C@@H](CO)O2)c(=O)[nH]c1=O` [AZT, azidothymidine], in data set [1], the bioavailability entry is on record as “about 60%”.

With `Cc1cn([C@@H]2O[C@H](CO)[C@@H](O)[C@@H]2F)c(=O)[nH]c1=O` [FMAU], the “doses producing irreversible neurological damage” value with encephalitis [2] (in vivo) is on record as “greater than 32 mg”. Besides, the therapeutic index entry in the data set on encephalitis [2] (treating encephalitis) is recorded as “greater than 3,000”.

Consider `Nc1nc(O)c2ncn(COC(CO)CO)c2n1` [DHPG, Dihydroxypropoxymethylgaunine], for which, in the data set with encephalitis [3], the “effectiveness relative to acyclovir” value is recorded as “at least 100 fold”. Besides, the pIC50 in the data set on HCMV was approximately 5.60. Also, the aqueous solubility in data set [4] was 5100 µg/mL (≈ 20 mM). For the same molecule, the “drug excreted unchanged by the kidneys” value in data set [5] is 99%. Further, in data set [5] (based on urinary excretion), the oral bioavailability is given as 3-4.6%. In data set [5] (setting [6]), the α-phase half-life was 0.23 h and the β-phase half-life was 2.53 h.
